# Results taken from US20170327559A1, “VIRAL INACTIVATION USING IMPROVED SOLVENT-DETERGENT METHOD” (Baxalta Incorporated, priority 2010, published 2017).
# Several values for one entry are separate records, joined by “and”; a condition that tells them apart may be missing. Equal entries are not always repeated. Where two headings read alike, the source gives them in different places.
# Legend:
# [1] = Temperature effects on solvent/detergent components before and after 0.2 μm filtration (HPLC); type: physicochemical
# Experimental: In order to evaluate the influence of a lower temperature on the mixing time of solvent/detergent components, 50 mL solvent/detergent solutions were prepared by adding 0.3% (v/v) TNBP, 1.0% (v/v) polyoxyethylene octyl phenyl ether (TRITON® X-100) and 0.3% (v/v) polysorbate 80 sorbitan monooleate (TWEEN® 80) and stirring at 4±2° C. for 10, 20, or 30 minutes. As the solvent/detergent solution already contained 0.1% polysorbate 80 sorbitan monooleate (TWEEN® 80), the final concentration for this compound was of 0.4%. The concentration of TNBP and polyoxyethylene octyl phenyl ether (TRITON® X-100) were determined simultaneously by using C18 RP-HPLC with a refractive index detector (RID). The concentration of polysorbate 80 sorbitan monooleate (TWEEN® 80) was determined by C1 RP-HPLC using an evaporative light scattering detector (ELSD). For the HPLC analysis of TNBP and polyoxyethylene octyl phenyl ether (TRITON® X-100), an isocratic elution is employed using 68% methanol in water. In the assay of polysorbate 80 sorbitan monooleate (TWEEN® 80), a gradient elution from 60% methanol in water to 100% methanol is used.
# To evaluate the impact of the temperature toward a potential retention of solvent/detergent conponents during the filtration step, 50 mL solvent/detergent solutions were prepared by adding 0.3% (v/v) TNBP, 1.0% (v/v) polyoxyethylene octyl phenyl ether (TRITON® X-100) and 0.3% (v/v) polysorbate 80 sorbitan monooleate (TWEEN® 80), stirring at 4±2° C. for 30 minutes and the concentration of each component was measured as described above. The solvent/detergent solutions were then processed under three different temperature conditions: 22.5° C. with a warm up period of about 8 hours; 22.5° C. with a warm up period of about 2 hours; and 4° C. without any warm-up or preheating step. At the end of the incubation period, samples were filtrated through a 0.2 μm filter and TNBP, polyoxyethylene octyl phenyl ether (TRITON® X-100) and polysorbate 80 sorbitan monooleate (TWEEN® 80) concentrations were measured by HPLC.
substance,measurement,setting,value
polyoxyethylene octyl phenyl ether [TRITON X-100],S/D component concentration,,1.2% and 1.1%
same,"S/D component concentration, Mean",,1.2 ± 0.06%
same,S/D component concentration after 0.2 μm filtration,[1],1.00% and 0.90% and 1.10%
same,"S/D component concentration after 0.2 μm filtration, Mean",[1],1.03% and 0.97% and 1.00%
same,S/D component concentration before 0.2 μm filtration,[1],0.80% and 1.00%
same,"S/D component concentration before 0.2 μm filtration, Mean",[1],1.00% and 0.93%
polysorbate 80 sorbitan monooleate [Tween 80],"S/D component concentration, Mean","mean of 10, 20, 30 min stirring at 4±2° C.",0.42 ± 0.02%
same,S/D component concentration,stirring at 4±2° C. for 10 min,0.42%
same,S/D component concentration,stirring at 4±2° C. for 20 min,0.40%
same,S/D component concentration,stirring at 4±2° C. for 30 min,0.44%
same,"S/D component concentration after 0.2 μm filtration, Mean","[1]; 4° C./2 H, n = 3",0.41%
same,"S/D component concentration before 0.2 μm filtration, Mean","[1]; 4° C./2 H, n = 3",0.40%
same,S/D component concentration after 0.2 μm filtration,"[1]; 4° C./2 H, runs 1-3",0.40% and 0.41%
same,S/D component concentration before 0.2 μm filtration,"[1]; 4° C./2 H, runs 1-3",0.38% and 0.40% and 0.42%
same,"S/D component concentration after 0.2 μm filtration, Mean","[1]; 22.5° C./2 H, n = 3",0.41%
same,"S/D component concentration before 0.2 μm filtration, Mean","[1]; 22.5° C./2 H, n = 3",0.41%
same,S/D component concentration after 0.2 μm filtration,"[1]; 22.5° C./2 H, runs 1-3",0.38% and 0.44% and 0.41%
same,S/D component concentration before 0.2 μm filtration,"[1]; 22.5° C./2 H, runs 1-3",0.41% and 0.42%
same,"S/D component concentration after 0.2 μm filtration, Mean","[1]; 22.5° C./8 H, n = 3",0.39%
same,"S/D component concentration before 0.2 μm filtration, Mean","[1]; 22.5° C./8 H, n = 3",0.38%
same,S/D component concentration after 0.2 μm filtration,"[1]; 22.5° C./8 H, runs 1-3",0.40% and 0.39% and 0.37%
same,S/D component concentration before 0.2 μm filtration,"[1]; 22.5° C./8 H, runs 1-3",0.33% and 0.39% and 0.42%
